Eight molecules from patent US8124634B2, “CB1 receptor modulators” (7TM Pharma A/S, priority 2006, dated 2012) can be followed below.

The target of this assay is T1, human CB1 receptor (Homo sapiens, UniProt P21554).
T1 construct: expressed in transfected cells; membranes
Nature of the assay: Cannabinoid Receptor-1 functional assay: inhibition of CP55940-induced [35S]GTPγS binding to membranes of CHO-K1 cells expressing human CB1. Type of assay: biochemical. The settings on record: 3 nM CP55940, hCB1 membranes, [35S]GTPγS SPA; read-out: IC50 value for antagonizing a CB1 receptor agonist. The text has this:
Transfection and Cell Culture—The cDNA encoding the human CB1 (Cannabinoid Receptor-1) receptor (GenBank accession number NM_016083) was cloned from a human adipose tissue cDNA library and cloned into the eukaryotic expression vector pcDNA3.1 (Invitrogen).
Chinese Hamster Ovary cells (CHO-K1) stably expressing recombinant human CB1 were generated by transfecting the plasmid containing the coding sequence of the human CB1 receptor in CHO-K1 cells, using lipofectamin, according to the manufacturer instructions. Resistant clones were selected in the presence of 600 μg/ml G418 (Life technology). Stably transfected CHO-K1 cells were maintained in Ham's F-12 culture medium (Invitrogen), supplemented with 10% fetal calf serum (Invitrogen), 100 U/ml penicillin, 100 μg/ml streptomycin (Life Technology), and 600 μg/ml G418.
Cannabinoid Receptor-1 Functional Assay.
Functional activities of the above examples of compounds of the invention were assessed in vitro by measuring their ability to inhibit CP55940-induced [^35S]GTPγS binding to membranes prepared from CHO-K1 cells expressing the human CB1 receptor (described in Transfection and Cell Culture). CP55940 is a well known non-selective CB1 and CB2 receptor agonist (e.g Felder et al., 1995, Molecular Pharmacology, (48) 443-50). Membranes were prepared by a standard procedure. Briefly, cells were harvested using 10 mM EDTA and collected by centrifugation. Pelleted cells were homogenized in ice-cold 20 mM Hepes (pH 7.4),10 mM EDTA and protease inhibitors (Complete protease inhibitor cocktail tablet, Roche) using an Ultra Turrax Homogenizer. The homogenate was centrifuged at 14 000 rpm for 45 min. at 4° C. The resultant pellet was resuspended in the same buffer but with only 0.1 mM EDTA and was again centrifuged at 14 000 rpm for 45 min. at 4° C. The resulting pellet (membranes) was resuspended in 20 mM Hepes (pH 7.4), 0.1 mM EDTA, 2 mM MgCl2 and protease inhibitors and protein concentration was determined by Micro BCA Protein Assay Reagent Kit (Pierce Biotechnology) according to the manufacturer instructions. The [^35S]GYPγS SPA (Scintillation Proximity Assay) binding assay was performed by incubating 5 μg/well hCB1-membranes with 1 nM [^35S]GYPγS (Perkin Elmer—NEG 030H) in the presence of 3 nM of CP55940 and various concentrations of the test compounds at room temperature for 1 hr in 96-well microtiter plates. 0.4 mg/well SPA beads (PVT-WGA; RPNQ0001 Amersham Pharmacia Biotech) were then added and the incubation continued for further 30 min. on an orbital shaker. The assay buffer contained 50 mM HEPES (pH 7.5), 50 mM NaCl, 2.5 mM MgCl2, 0.1% BSA, 1 μM GDP and 100 μg/ml Saponin. Microtiter plates were centrifuged at 1500 rpm for 5 min. and radioactivity was read immediately using a Topcounter (PerkinElmer Life Sciences). Data were analyzed and IC50 values determined by non-linear regression using the Prism software (GraphPad Software, San Diego).

T1 sequence (P21554 whole entry): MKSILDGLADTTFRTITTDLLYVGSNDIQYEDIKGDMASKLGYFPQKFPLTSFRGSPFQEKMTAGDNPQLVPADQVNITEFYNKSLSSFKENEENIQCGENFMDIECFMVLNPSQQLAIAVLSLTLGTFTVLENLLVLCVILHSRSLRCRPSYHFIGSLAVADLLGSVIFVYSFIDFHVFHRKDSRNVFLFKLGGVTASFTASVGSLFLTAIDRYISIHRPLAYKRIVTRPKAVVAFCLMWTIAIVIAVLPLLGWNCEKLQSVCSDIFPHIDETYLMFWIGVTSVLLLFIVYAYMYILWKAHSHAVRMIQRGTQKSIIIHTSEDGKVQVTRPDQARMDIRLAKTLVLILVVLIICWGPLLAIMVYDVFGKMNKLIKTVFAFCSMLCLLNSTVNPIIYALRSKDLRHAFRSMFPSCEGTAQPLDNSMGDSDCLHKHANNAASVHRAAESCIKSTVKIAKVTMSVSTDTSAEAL

With `CC(NC(=O)c1nn(-c2ccccc2Cl)c(-c2ccc(Cl)cc2)c1Cc1nn[nH]n1)c1ccc(Br)cc1F` (centres unmarked) [[2.20], 1-(2-Chloro-phenyl)-5-(4-chloro-phenyl)-4-(2H-tetrazol-5-ylmethyl)-1H-pyrazole-3-carboxylic acid [1-(4-bromo-2-fluoro-phenyl)-ethyl]-amide], the IC50 was under 300 nM. The result for `C[C@@H](NC(=O)c1nn(-c2ccccc2Cl)c(-c2ccc(Cl)cc2)c1Cc1nn[nH]n1)c1ccc(Cl)c(Cl)c1` [[2.22], 1-(2-Chloro-phenyl)-5-(4-chloro-phenyl)-4-(2H-tetrazol-5-ylmethyl)-1H-pyrazole-3-carboxylic acid [(R)-1-(3,4-dichloro-phenyl)-ethyl]-amide] reads under 300 nM. As to `C[C@@H](NC(=O)c1nn(-c2ccccc2Cl)c(-c2ccc(Cl)cc2)c1Cc1nn[nH]n1)c1ccc(Cl)c(F)c1` [[2.23], 1-(2-Chloro-phenyl)-5-(4-chloro-phenyl)-4-(2H-tetrazol-5-ylmethyl)-1H-pyrazole-3-carboxylic acid [(R)-1-(3-fluoro-4-chloro-phenyl)-ethyl]-amide], the IC50 was under 300 nM. Regarding `C[C@@H](NC(=O)c1nn(-c2ccccc2Cl)c(-c2ccc(Cl)cc2)c1Cc1nn[nH]n1)c1ccc(F)c(Cl)c1` [[2.24], 1-(2-Chloro-phenyl)-5-(4-chloro-phenyl)-4-(2H-tetrazol-5-ylmethyl)-1H-pyrazole-3-carboxylic acid [(R)-1-(3-chloro-4-fluoro-phenyl)-ethyl]-amide], the IC50 is under 300 nM. Turning to `C[C@@H](NC(=O)c1nn(-c2ccccc2Cl)c(-c2ccc(Cl)cc2)c1Cc1nnn[nH]1)c1cccc(Cl)c1` [[2.25], 1-(2-Chloro-phenyl)-5-(4-chloro-phenyl)-4-(1H-tetrazol-5-ylmethyl)-1H-pyrazole-3-carboxylic acid [(R)-1-(3-chloro-phenyl)-ethyl]-amide], the IC50 is under 300 nM. Regarding `C[C@@H](NC(=O)c1nn(-c2ccccc2Cl)c(-c2ccc(Cl)cc2)c1Cc1nn[nH]n1)c1ccc(OC(F)(F)F)cc1` [[2.26], 1-(2-Chloro-phenyl)-5-(4-chloro-phenyl)-4-(2H-tetrazol-5-ylmethyl)-1H-pyrazole-3-carboxylic acid [(R)-1-(4-trifluoromethoxyl-phenyl)-ethyl]-amide], the concentration for half-maximal inhibition (IC50) is under 300 nM. `C[C@H](c1ccc(OC(F)(F)F)cc1)N(C)C(=O)c1nn(-c2ccccc2Cl)c(-c2ccc(Cl)cc2)c1Cc1nnn[nH]1` [[2.27], 1-(2-Chloro-phenyl)-5-(4-chloro-phenyl)-4-(1H-tetrazol-5-ylmethyl)-1H-pyrazole-3-carboxylic acid methyl-[(R)-1-(4-trifluoromethoxy-phenyl)-ethyl]-amide]: the IC50 is under 300 nM. The result for `C[C@H](c1ccc(F)c(Cl)c1)N(C)C(=O)c1nn(-c2ccccc2Cl)c(-c2ccc(Cl)cc2)c1Cc1nnn[nH]1` [[2.28], 1-(2-Chloro-phenyl)-5-(4-chloro-phenyl)-4-(1H-tetrazol-5-ylmethyl)-1H-pyrazole-3-carboxylic acid methyl-[(R)-1-(3-chloro-4-fluoro-phenyl)-ethyl]-amide] reads under 300 nM.
